# Results published in patent publication US20240216395A1, “19-NOR C3,3-DISUBSTITUTED C21 -N-PYRAZOLYL STEROID FOR USE IN TREATING MAJOR DEPRESSIVE DISORDER AND […]” (priority 2021, published 2024).
# Values joined by “and” are separate entries in the source; they are usually repeats but may differ in a detail not shown here. Identical values can stand only once.
# Tests used:
# [1] = test system: nondependent, recreational users of CNS depressants; experiment: Abuse potential study, dose selection phase: TEAEs; assay type: in vivo, human
# Method: After a screening period of up to 21 days, eligible participants were randomized 3:1 to receive single escalating doses of Compound (1) (60, 80, or 90 mg) or matching placebo in 3 separate cohorts; Compound (1) was administered during 4 days of inpatient administration (FIG. 30A). Sentinel dosing was employed for each cohort, with one participant randomized to receive Compound (1) and one to receive placebo on Day 1. The remaining 6 participants (Compound (1), 5; placebo, 1) were dosed approximately 24 hours later after monitoring the safety and tolerability endpoints. Dose-escalation cohorts were separated by at least 7 days. If a dose was not well tolerated based on the safety data, doses in subsequent cohorts were to be modified, and Compound (1) dose was not allowed to exceed 90 mg. Participants underwent a 1-day, follow-up visit 7 (±2) days after the end of the treatment and were not permitted to participate in the main study.
# For the first part, dose selection, endpoints included the observer-rated Modified Observer's Assessment of Alertness/Sedation (MOAA/S) scores along with safety and tolerability endpoints which included the Columbia-Suicide Severity Rating Scale (C-SSRS), frequency and severity of adverse events (AE) and serious adverse events (SAEs), and changes from baseline in clinical laboratory assessments, vital signs, and electrocardiogram (ECG).
# The dose selection safety set included all participants who received 1 dose of Compound (1). The main study qualification safety set included all participants who received ≥1 dose of alprazolam. For the treatment phase, the randomized set included all participants who were randomized and the safety set included all participants who received ≥1 dose of Compound (1) or alprazolam. The completer set included all participants in the randomized set who completed all treatment periods, had sufficient data for evaluation of the primary endpoint, and had ≥1 observation within 2 hours of Tmax for each treatment for Drug Liking VAS scores. […] The PK set included all participants in the treatment phase who received 1 dose of Compound (1) and had 1 PK sample after dosing.
# [2] = test system: adult subjects with major depressive disorder (MDD); experiment: Phase 3 MDD study (NCT04442490): safety and tolerability (TEAEs, C-SSRS, PWC-20); assay type: in vivo, human
# Method: • Incidence and severity of adverse events/serious adverse events • Changes from baseline in clinical laboratory measures, vital signs, and electrocardiograms (ECGs) • Suicidal ideation and behavior using the Columbia Suicide Severity Rating Scale (C-SSRS) • Potential withdrawal symptoms using the 20-item Physician Withdrawal Checklist (PWC-20)
# Safety and tolerability of study drug was evaluated by incidence of adverse events/serious adverse events, vital signs, clinical laboratory evaluations, and 12-lead ECG.
# Suicidality was monitored by the C-SSRS. Potential withdrawal symptoms after discontinuation of Compound (1) was assessed using the PWC-20.
# Safety and tolerability were evaluated by incidence and severity of adverse events (AEs), serious adverse events (SAEs), changes from baseline in clinical laboratory evaluations, vital signs, and 12-lead electrocardiography. Suicidality was monitored by the Columbia Suicide Severity Rating Scale (C-SSRS). The Physician Withdrawal Checklist-20 total score (PWC-20TS) was used to monitor for the presence of potential withdrawal symptoms following discontinuation of Compound (1)-50 mg.
# [3] = 50 mg (n = 268), through Day 42
smiles,measurement,setting,value
"C[C@@]1(O)CC[C@H]2[C@H](CC[C@@H]3[C@@H]2CC[C@]2(C)[C@@H](C(=O)Cn4cc(C#N)cn4)CC[C@@H]32)C1 [Compound (1), 1-(2-((3R,5R,8R,9R,10S,13S,14S,17S)-3-hydroxy-3,13-dimethylhexadecahydro-1H-cyclopenta[a]phenanthren-17-yl)-2-oxoethyl)-1H-pyrazole-4-carbonitrile]",Headache (TEAE),[1]; 90 mg (n = 6),0 n (%)
same,Hunger (TEAE),[1]; 90 mg (n = 6),0 n (%)
same,Hyperhidrosis (TEAE),[1]; 90 mg (n = 6),1 (16.7) n (%)
same,Irritability (TEAE),[1]; 90 mg (n = 6),1 (16.7) n (%)
same,Lacrimation increased (TEAE),[1]; 90 mg (n = 6),0 n (%)
same,Mild TEAE,[1]; 90 mg (n = 6),5 (83.3) n (%)
same,Moderate TEAE,[1]; 90 mg (n = 6),1 (16.7) n (%)
same,Orthostatic HR response increase (TEAE),[1]; 90 mg (n = 6),0 n (%)
same,Paresthesia (TEAE),[1]; 90 mg (n = 6),0 n (%)
same,Somnolence (TEAE),[1]; 90 mg (n = 6),4 (66.7) n (%)
same,Toothache (TEAE),[1]; 90 mg (n = 6),0 n (%)
same,Tremor (TEAE),[1]; 90 mg (n = 6),1 (16.7) n (%)
same,Vision blurred (TEAE),[1]; 90 mg (n = 6),0 n (%)
same,Yawning (TEAE),[1]; 90 mg (n = 6),1 (16.7) n (%)
same,Blood bilirubin increased (TEAE),[1]; All doses (n = 18),0 n
same,Feeling hot (TEAE),[1]; All doses (n = 18),0 n
same,Hunger (TEAE),[1]; All doses (n = 18),0 n
same,Lacrimation increased (TEAE),[1]; All doses (n = 18),0 n
same,Toothache (TEAE),[1]; All doses (n = 18),0 n
same,"AEs of loss of consciousness, weight gain, sexual dysfunction, euphoria",[2]; 50 mg,"no loss of consciousness, weight gain, sexual dysfunction, or euphoria reported"
same,Overall tolerability,[2]; 50 mg,generally well-tolerated
same,TEAE Alanine aminotransferase increased,[2]; [3],3 (1.1%) n (%)
same,TEAE Dry mouth,[2]; [3],10 (3.7%) n (%)
same,TEAE Tremor,[2]; [3],8 (3.0%) n (%)
same,Any TEAE,"[2]; 50 mg, ADT use at baseline=Yes (N = 79)",50 (63.3) n (%)
same,TEAE Abnormal dreams,"[2]; 50 mg, ADT=Yes (N = 79)",2 (2.5) n (%)
same,TEAE Alanine aminotransferase increased,"[2]; 50 mg, ADT=Yes (N = 79)",2 (2.5) n (%)
same,TEAE Diarrhea,"[2]; 50 mg, ADT=Yes (N = 79)",4 (5.1) n (%)
same,TEAE Disturbance in attention,"[2]; 50 mg, ADT=Yes (N = 79)",0 n (%)
same,TEAE Dizziness,"[2]; 50 mg, ADT=Yes (N = 79)",10 (12.7) n (%)
same,TEAE Dry mouth,"[2]; 50 mg, ADT=Yes (N = 79)",4 (5.1) n (%)
same,TEAE Flatulence,"[2]; 50 mg, ADT=Yes (N = 79)",0 n (%)
same,TEAE Gastroenteritis,"[2]; 50 mg, ADT=Yes (N = 79)",2 (2.5) n (%)
same,TEAE Headache,"[2]; 50 mg, ADT=Yes (N = 79)",9 (11.4) n (%)
same,TEAE Insomnia,"[2]; 50 mg, ADT=Yes (N = 79)",2 (2.5) n (%)
same,TEAE Nausea,"[2]; 50 mg, ADT=Yes (N = 79)",1 (1.3) n (%)
same,TEAE Restlessness,"[2]; 50 mg, ADT=Yes (N = 79)",2 (2.5) n (%)
same,TEAE Sedation,"[2]; 50 mg, ADT=Yes (N = 79)",7 (8.9) n (%)
same,TEAE Somnolence,"[2]; 50 mg, ADT=Yes (N = 79)",9 (11.4) n (%)
same,TEAE Suicidal ideation,"[2]; 50 mg, ADT=Yes (N = 79)",3 (3.8) n (%)
same,TEAE Tremor,"[2]; 50 mg, ADT=Yes (N = 79)",3 (3.8) n (%)
same,TEAE Upper respiratory tract infection,"[2]; 50 mg, ADT=Yes (N = 79)",2 (2.5) n (%)
same,TEAE Urinary tract infection,"[2]; 50 mg, ADT=Yes (N = 79)",2 (2.5) n (%)
same,C-SSRS: No suicidal ideation/behavior,"[2]; 50 mg, Day 8 (N = 255)",237 (92.9) n (%)
same,C-SSRS: Suicidal behavior,"[2]; 50 mg, Day 8 (N = 255)",0 n (%)
same,C-SSRS: Suicidal ideation,"[2]; 50 mg, Day 8 (N = 255)",18 (7.1) n (%)
same,C-SSRS: No suicidal ideation/behavior,"[2]; 50 mg, Day 15 (N = 248)",229 (92.3) n (%)
same,C-SSRS: Suicidal behavior,"[2]; 50 mg, Day 15 (N = 248)",0 n (%)
same,C-SSRS: Suicidal ideation,"[2]; 50 mg, Day 15 (N = 248)",19 (7.7) n (%)
same,"PWC-20 total score change from first assessment (CFFA), mean (SD)","[2]; 50 mg, Day 18",−1.2 (4.3) and −1.2 (4.32)
same,Withdrawal symptoms by PWC-20,"[2]; 50 mg, Day 18 or 21",No signals for withdrawal symptoms
same,"PWC-20 total score change from first assessment (CFFA), mean (SD)","[2]; 50 mg, Day 21",−0.3 (4.6) and −0.3 (4.37)
same,C-SSRS: No suicidal ideation/behavior,"[2]; 50 mg, Day 42 (N = 240)",223 (92.9) n (%)
same,C-SSRS: Suicidal behavior,"[2]; 50 mg, Day 42 (N = 240)",0 n (%)
same,C-SSRS: Suicidal ideation,"[2]; 50 mg, Day 42 (N = 240)",17 (7.1) n (%)
same,Suicidal ideation/behavior signal by C-SSRS,"[2]; 50 mg, throughout the study",No signal of increased suicidal ideation/behavior
same,Patients with a TEAE whose TEAEs were mild and moderate in severity,[2]; clinical trial of Example 1,95.0%
